# According to patent US10906909B2, “Treatment of cognitive and mood symptoms in neurodegenerative and neuropsychiatric disorders with ALPHA5-containing GABAA receptor agonists” (UWM Research Foundation, Inc., priority 2016, dated 2021):
# Assays:
# [1] = tested on: Female Swiss Webster mice; assay: Rotarod sensorimotor / locomotor coordination; assay type: in vivo, mouse; details: diazepam 5 mg/kg oral gavage; positive control
# Procedure: Female Swiss Webster mice (10 weeks of age) from Charles River Laboratory, WIL, MA were used for the experiments. The animals were housed under specific pathogen-free conditions, under standard conditions of humidity, temperature and a controlled 12 h light and dark cycle and had free access to food and water. The sensorimotor rotarod test was carried out 10, 30 and 60 minutes after the injection. Mice were tested on a rotarod at 15 rpm for maximum 3 min and the time of fall was recorded. Falling before the 3 minutes period of testing assesses of locomotor coordination impairment induced by the compound.
# Mice (N=10/group) received a single administration via oral gavage of test compound (40 mg/kg), diazepam (5 mg/kg), or vehicle (2% polyethylene glycol, 2.5% hydroxypropylmethyl cellulose solution).
# [2] = tested on: rats; assay: Morris water maze; assay type: in vivo, rat; details: diazepam 2 mg/kg, positive control
# Procedure: The potential of MP-III-022 to affect cognitive performance of rats was assessed in 2 well-validated behavioral models. First, Morris water maze experiments were performed in a 2 m diameter circular pool filled to a height of 30 cm with water at 22±1° C. The escape platform (15 cm×10 cm) was submerged 2 cm below the water surface. All experimental details were as described in Savic et al. (Int. J. Neuropsychopharmacol. 2009, 12, 1179-1193). On each of the five consecutive days rats were given one swimming block, consisting of four trials. For each trial the rat was placed in the water at one of four pseudo-randomly determined starting positions. Once the rat has found and mounted the escape platform it was permitted to remain on the platform for 15 s. […] During the acquisition phase, treatments were applied once daily before the swimming block. On the sixth day, rats were given a treatment-free probe test (60 s) without the platform. The probe test was started from the novel, most distant location. Dependent variables chosen for tracking during the acquisition trials were: escape latency (s), total distance traveled (m), path efficiency (the ratio of the shortest possible path length to actual path length), % of distance swam in the peripheral annulus and mean speed (m/s). The selected parameters in the probe test were the distance swam in the target zone […] and % of the distance swam in the peripheral annulus. We tested the effects of 1, 2.5 and 10 mg/kg MP-III-022 and 2 mg/kg diazepam as control drug. The doses of MP-III-022 were selected so that they elicit a mild, moderate and strong positive modulation of α5GABAARs, respectively, in accordance with the analysis of thorough pharmacokinetic and electrophysiological data presented in Stamenic et al. (Eur. J. Pharmacol. 2016, 791, 433-443). The data from the acquisition days in the Morris water maze were averaged for each rat (total data/total number of trials per day) and analyzed using two-way ANOVA with repeated measures (factors: Treatment and Days) with Days as the repeated measure. In the case of significant interaction, separate one-way ANOVAs were conducted to assess the influence of treatment within individual levels of factor Days. The data from the probe test were assessed using one-way ANOVA.
# [3] = tested on: rats; assay: Social novelty discrimination (SND); assay type: in vivo, rat; details: 2.5 mg/kg diazepam (so in the source)
# Procedure: The SND test compares the social investigation times of an adult rat with a familiar and a novel juvenile rat. Testing consisted of two consecutive juvenile presentations periods to an adult subject: period 1 (P1) and period 2 (P2). At the beginning of P1, one juvenile was placed into the adult home cage and the time spent by the adult investigating the juvenile (anogenital sniffing, licking, close pursuing and pawing) was recorded manually for 5 min. During P2, the same juvenile and a second, novel juvenile were placed in the cage together with the adult, and the times spent by the adult investigating each juvenile were measured independently for 3 min. A different pair of juvenile rats was presented to each adult tested. Manual scoring was conducted in a blinded manner. SND was deliberately impaired in control rats by the parametric manipulation applied, as there was 30 min delay between P1 and P2, and their SND was expected to be low. The influence of MP-III-022 (1, 2.5 or 10 mg/kg) on the thus induced impairment in SND was examined. There were five groups of rats which received one of the following treatments 20 min before P1: solvent, 1.5 mg/kg diazepam and 1, 2.5 and 10 mg/kg MP-III-022. The amount of time investigating familiar (Tf) and novel (Tn) juvenile during P2 was manually scored, and discrimination indexes (Tn−Tf/Tn+Tf) was calculated. Total exploration time during P1 and P2 was also manually recorded.
structure (smiles),measurement,setting,value
"CN1C(=O)CN=C(c2ccccc2)c2cc(Cl)ccc21 [diazepam, reference compound]",sensorimotor performance on rotarod (time of fall),[1],sensorimotor steadiness at 10 minutes
same,spatial learning during acquisition in the water maze,[2],spatial learning incapacitation
same,time exploring the familiar and the novel juvenile rat during P2,[3],statistical trend
